US8809341B2, “2,4-pyrimidinediamine compounds and uses as anti-proliferative agents” (Rigel Pharmaceuticals, Inc., priority 2003, dated 2014)
Each block holds one compound with its values, some of them ahead of it.

Tests used:
H1299 cells = experiment: in vitro antiproliferation assay, H1299 (lung); type: cell-based
Procedure, shortened: (§1)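 IC50 values came from standard antiproliferation testing in cultured tumour cells; the A549 and H1299 lines are of lung origin.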

A549 cells = experiment: in vitro antiproliferation assay, A549 (lung); type: cell-based
Procedure, shortened: as §1

[1] = IC50 class against H1299 (lung) tumor cells
[2] = IC50 class against A549 (lung) tumor cells
[3] = Table 5, in vitro antiproliferation, H1299 (lung) cells
[4] = Table 5, in vitro antiproliferation, A549 (lung) cells
[5] = H1299 (lung) cells, in vitro antiproliferation
[6] = A549 (lung) cells, in vitro antiproliferation
[7] = in vitro antiproliferation, H1299 (lung) cells, Table 4, compounds with no designated stereochemistry tested as racemate
[8] = in vitro antiproliferation, A549 (lung) cells, Table 4, compounds with no designated stereochemistry tested as racemate
[9] = H1299 (lung) cells, antiproliferation
[10] = A549 (lung) cells, antiproliferation
[11] = Table 7, in vitro antiproliferation, H1299 (lung) cells
[12] = Table 7, in vitro antiproliferation, A549 (lung) cells

IC50 (H1299 cells; Homo sapiens, NCI-H1299, H1299 (lung) cells): ≤ 20 µM
IC50 (A549 cells; Homo sapiens, A549 (lung) cells): ≤ 20 µM
Compound: CC(Nc1ncc(F)c(Nc2ccc3c(c2)OCCO3)n1)c1ccccc1 (stereo not shown) [compound 1147]

IC50 (H1299 cells; [5]): ≤ 20 µM
IC50 (A549 cells; [6]): ≤ 20 µM
Compound: CCOc1ccc(Nc2ncc(F)c(Nc3ccc(OCC)cc3)n2)cc1 [compound 704]

IC50 (H1299 cells; [1]): ≤ 20 µM
IC50 (A549 cells; [2]): ≤ 20 µM
Compound: CN(c1ccc2c(c1)OCCO2)c1nc(NCCO)ncc1F [compound 1040]

IC50 (H1299 cells; [9]): ≤ 20 µM
IC50 (A549 cells; [10]): ≤ 20 µM
Compound: CNC(=O)COc1cccc(Nc2ncc(F)c(Nc3cccc(CN)c3)n2)c1 [compound 970]

IC50 (H1299 cells; [5]): ≤ 20 µM
IC50 (A549 cells; [6]): ≤ 20 µM
Compound: COc1ccc(Nc2nc(Nc3cc(Cl)c(O)c(Cl)c3)ncc2F)cc1Cl [compound 828]

IC50 (H1299 cells; [1]): ≤ 20 µM
IC50 (A549 cells; [2]): ≤ 20 µM
Compound: COc1cc(Nc2ncc(F)c(Nc3ccc4c(c3)OCCO4)n2)c(OC)cc1Cl [compound 1049]

IC50 (H1299 cells; H1299 (lung) cells): ≤ 20 µM
IC50 (A549 cells; A549 (lung) cells): ≤ 20 µM
Compound: COc1ccc(Nc2nc(Nc3ccc4c(cnn4C(C)(C)CC4CC4)c3)ncc2F)cc1Cl [compound 1106]

IC50 (H1299 cells; [9]): > 20 µM
IC50 (A549 cells; [10]): ≤ 20 µM
Compound: CNC(=O)COc1cccc(Nc2ncc(F)c(N(C)c3ccc(Cl)c(OC)c3)n2)c1 [compound 910]

IC50 (H1299 cells; [5]): ≤ 20 µM
IC50 (A549 cells; [6]): ≤ 20 µM
Compound: COc1ccc(N(C)c2nc(Nc3cc(C)cc(C)c3)ncc2F)cc1OC [compound 864]

IC50 (H1299 cells; [9]): ≤ 20 µM
IC50 (A549 cells; [10]): ≤ 20 µM
Compound: CN(c1ccc(Cl)c(Cl)c1)c1nc(Nc2ccc(C(N)=O)cc2)ncc1F [compound 1030]

IC50 (H1299 cells; [9]): ≤ 20 µM
IC50 (A549 cells; [10]): ≤ 20 µM
Compound: CC(C)(C)OC(=O)NCc1cccc(Nc2ncc(F)c(Nc3cccc(CNC(=O)OC(C)(C)C)c3)n2)c1 [compound 1015]

IC50 (H1299 cells; [11]): ≤ 20 µM
IC50 (A549 cells; [12]): ≤ 20 µM
Compound: CNC(=O)c1cc2cccc(Nc3ncc(F)c(Nc4cc(OC)cc(C(F)(F)F)c4)n3)c2[nH]1 [compound 669]

IC50 (H1299 cells; [9]): ≤ 20 µM
IC50 (A549 cells; [10]): ≤ 20 µM
Compound: CNC(=O)COc1c(C)cc(Nc2ncc(F)c(Nc3cc(OC)cc(OC)c3)n2)cc1C [compound 902]

IC50 (H1299 cells; [11]): ≤ 20 µM
IC50 (A549 cells; [12]): > 20 µM
Compound: CNC(=O)c1cc2cccc(Nc3ncc(F)c(Nc4cc(C)cc(C)c4)n3)c2[nH]1 [compound 668]

IC50 (H1299 cells; [9]): ≤ 20 µM
IC50 (A549 cells; [10]): > 20 µM
Compound: CCOC(=O)COc1cccc(Nc2ncc(F)c(Nc3cc(C)c(O)c(Cl)c3)n2)c1 [compound 952]

IC50 (H1299 cells; [9]): ≤ 20 µM
IC50 (A549 cells; [10]): ≤ 20 µM
Compound: COc1ccc(Nc2nc(Nc3cc(-c4ncco4)cc(C(F)(F)F)c3)ncc2F)cc1OC [compound 889]

IC50 (H1299 cells; H1299 (lung) cells): ≤ 20 µM
IC50 (A549 cells; A549 (lung) cells): ≤ 20 µM
Compound: CCCCn1ncc2cc(Nc3ncc(F)c(Nc4ccc(F)c(OC)c4)n3)ccc21 [compound 1085]

Second part, the compound before the results:

Compound: Cc1cc(Nc2ncc(F)c(NC3CCCCC3)n2)cnc1N1CCN(C)CC1 [compound 173]
IC50 (H1299 cells; [1]): ≤ 20 µM
IC50 (A549 cells; [2]): ≤ 20 µM

Compound: CCOC(=O)N1CCC(Nc2nc(Nc3cccc(N4CCN(C)CC4)c3)ncc2F)CC1 [compound 186]
IC50 (H1299 cells; [1]): ≤ 20 µM
IC50 (A549 cells; [2]): ≤ 20 µM

Compound: Fc1cnc(Nc2cccc(N3CCOCC3)c2)nc1NC1CCCC1 [compound 135]
IC50 (H1299 cells; [1]): ≤ 20 µM
IC50 (A549 cells; [2]): ≤ 20 µM

Compound: CN1CCN(c2cccc(Nc3ncc(F)c(N(C)C4CCC4)n3)c2)CC1 [compound 129]
IC50 (H1299 cells; [1]): ≤ 20 µM
IC50 (A549 cells; [2]): ≤ 20 µM

Compound: COc1cc(Nc2ncc(F)c(Nc3ccc4c(c3)NC(C)(C)CO4)n2)cc(OC)c1 [compound 588]
IC50 (H1299 cells; [1]): ≤ 20 µM
IC50 (A549 cells; [2]): ≤ 20 µM

Compound: Fc1cnc(Nc2cc(Cl)cc(Cl)c2)nc1Nc1ccc2c(c1)OC(F)(F)C(F)(F)O2 [compound 535]
IC50 (H1299 cells; [3]): ≤ 20 µM
IC50 (A549 cells; [4]): ≤ 20 µM

Compound: CN(c1ccc2c(c1)OC(F)(F)C(F)(F)O2)c1nc(Nc2cccc(-c3ncco3)c2)ncc1F [compound 572]
IC50 (H1299 cells; [3]): ≤ 20 µM
IC50 (A549 cells; [4]): ≤ 20 µM

Compound: CNC(=O)COc1cccc(Nc2ncc(F)c(Nc3ccc4c(c3)N(C)C(=O)CO4)n2)c1 [compound 299]
IC50 (H1299 cells; [7]): > 20 µM
IC50 (A549 cells; [8]): ≤ 20 µM

Compound: CCN1CCN(c2ccc(Nc3ncc(F)c(NC4CCCCC4)n3)cn2)CC1 [compound 169]
IC50 (H1299 cells; [1]): ≤ 20 µM
IC50 (A549 cells; [2]): ≤ 20 µM

Compound: Cc1cc(Nc2ncc(F)c(Nc3ccc4c(c3)OC(F)(F)O4)n2)cc(Cl)c1O [compound 566]
IC50 (H1299 cells; [3]): ≤ 20 µM
IC50 (A549 cells; [4]): ≤ 20 µM

Compound: CN1CCN(c2ccc(Nc3ncc(F)c(Nc4ccc5c(n4)NCCO5)n3)cc2Cl)CC1 [compound 615]
IC50 (H1299 cells; [1]): ≤ 20 µM
IC50 (A549 cells; [2]): ≤ 20 µM

Compound: Cc1cc(Nc2ncc(F)c(NC(C)C)n2)cnc1N1CCN(C)CC1 [compound 227]
IC50 (H1299 cells; [1]): ≤ 20 µM
IC50 (A549 cells; [2]): ≤ 20 µM

Compound: Fc1cnc(Nc2cccc(N3CCOCC3)c2)nc1Nc1ccc2c(n1)NCCO2 [compound 605]
IC50 (H1299 cells; [1]): ≤ 20 µM
IC50 (A549 cells; [2]): ≤ 20 µM

Compound: CC(=O)N1CCN(c2cccc(Nc3ncc(F)c(Nc4cc(C(C)(C)C)[nH]n4)n3)c2)CC1 [compound 200]
IC50 (H1299 cells; Homo sapiens, NCI-H1299, IC50 class against H1299 (lung) tumor cells): ≤ 20 µM
IC50 (A549 cells; Homo sapiens, IC50 class against A549 (lung) tumor cells): ≤ 20 µM

Compound: O=C1Nc2cc(Nc3nc(Nc4cccc(-c5ncco5)c4)ncc3F)ccc2OC1CCO (racemic) [compound 237]
IC50 (H1299 cells; [7]): ≤ 20 µM
IC50 (A549 cells; [8]): ≤ 20 µM
